In paper PMC7024302, “Ultrashort Cationic Lipopeptides–Effect of N-Terminal Amino Acid and Fatty Acid Type on Antimicrobial Activity and Hemolysis” (Molecules, 2020):
≈ marks a conversion by molar mass, not a printed value. Residues, ends and D or L forms follow the SMILES beside them.

Experiments:
[1] = test system: A. baumannii ATCC BAA-1605; assay type: cell-based, Acinetobacter baumannii; settings: ATCC BAA-1605, 18 h
Summary of the method: (§1)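 CLSI broth microdilution in MHB, bacterial inoculum 5 × 10^5 CFU/mL exposed to lipopeptides at 0.5–256 µg/mL, 18 h at 37 °C. MIC taken as lowest concentration inhibiting noticeable growth; triplicate runs.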

[2] = test system: K. pneumoniae ATCC 700603; assay type: cell-based, Klebsiella pneumoniae; settings: ATCC 700603, 18 h
Summary of the method: as §1

[3] = test system: P. aeruginosa ATCC 9027; assay type: cell-based, Pseudomonas aeruginosa; settings: ATCC 9027, 18 h
Summary of the method: as §1

[4] = test system: human red blood cells (hRBCs); assay type: cell-based; settings: red cells of human, 1 h
Summary of the method: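 Fresh EDTA-anticoagulated human RBCs, PBS-washed, at 4% (v/v) final were exposed to lipopeptides at 0.5–256 µg/mL for 1 h at 37 °C. Released haemoglobin in supernatant read at 540 nm; PBS as 0% and 1% Triton X-100 as 100% haemolysis. Triplicates.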

[5] = test system: S. aureus ATCC 33591 (MRSA); assay type: cell-based, Staphylococcus aureus; settings: ATCC 33591, 18 h
Summary of the method: as §1

[6] = test system: S. aureus ATCC 25923; assay type: cell-based, Staphylococcus aureus; settings: ATCC 25923, 18 h
Summary of the method: as §1

[7] = test system: E. faecium ATCC 700221; assay type: cell-based, Enterococcus faecium; settings: ATCC 700221, 18 h
Summary of the method: as §1

[8] = test system: C. albicans ATCC 10231; assay type: cell-based, Candida albicans; settings: ATCC 10231, 24 h, pH 7
[9] = Determination of peptide hydrophobicity with RP-HPLC (adjusted retention time); assay type: physicochemical; settings: for tR’: Table 3, adjusted retention time as hydrophobicity
Summary of the method: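 Peptides at 1 g/L in water with 0.1% TFA run on a C18 column (3.0 × 100 mm, 5 µm). Elution with a linear 10–55% acetonitrile gradient over 60 min, 0.1% TFA in both eluents, 0.5 mL/min, 25.0 ± 0.1 °C. Detection at 214 nm, in triplicate.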

[10] = test system: K. aerogenes ATCC 13048; assay type: cell-based, Klebsiella aerogenes; settings: ATCC 13048, 18 h
Summary of the method: as §1

[11] = RP-HPLC C18, linear 10–55% acetonitrile over 60 min, 0.1% TFA, 25.0 °C, UV 214 nm, triplicate

| SMILES | MIC A [1] [µg/mL] | MIC K [2] | MIC PA [3] [µg/mL] | HC50 [4] | MIC S [5] | MIC SA [6] | MIC E1 [7] | MIC CA [8] [µg/mL] | tR’ [9, 11] [min] | MIC E2 [10] | tR’ (adjusted retention time) ([9]; Table 1 and b9, measure of hydrophobicity, RP-HPLC, Phenomenex Luna C18(2) 3.0 × 100 mm, 5 µm, linear 10–55% acetonitrile in water over 60 min, 0.1% TFA, 0.5 mL/min, 25.0 °C, UV 214 nm, peptide 1 g/L, triplicate) [min] | ∆tR ([9]; tR’ of the lipopeptide minus tR’ of C10-RR-NH2 or C12-RR-NH2, same RP-HPLC conditions) [min] | Adjusted retention time ([9]; Table 2, nC = carbon atoms in fatty acid chain, RP-HPLC C18, linear 10–55% acetonitrile over 60 min, 0.1% TFA, 25.0 °C, UV 214 nm, triplicate) [min] |
| --- | --- | --- | --- | --- | --- | --- | --- | --- | --- | --- | --- | --- | --- |
| CCCCCCCCCCCCCCCCCC(=O)N[C@@H](CCCNC(=N)N)C(=O)N[C@@H](CCCNC(=N)N)C(N)=O [compound 6, C18-RR-NH2, reference compound] (HELM PEPTIDE1{[CCCCCCCCCCCCCCCCCC(=O)[*:2]].R.R.[am]}$$$$V2.0) | 32 (≈ 53.7 µM) | 16 µg/mL (≈ 26.9 µM) | 64 (≈ 107 µM) | 25.19 (±0.67) µg/mL | 16 µg/mL (≈ 26.9 µM) | 16 µg/mL (≈ 26.9 µM) | 8 µg/mL (≈ 13.4 µM) | 4 (≈ 6.71 µM) | 53.39 | 16 µg/mL (≈ 26.9 µM) |  |  |  |
| CCCCCCCCCCCCCC(=O)N1CCC[C@H]1C(=O)N[C@@H](CCCNC(=N)N)C(=O)N[C@@H](CCCNC(=N)N)C(N)=O [compound 74, C14-PRR-NH2] | 64 (≈ 100 µM) | 256 µg/mL (≈ 402 µM) | 16 (≈ 25.1 µM) | 53.41 (±1.84) µg/mL | 8 µg/mL (≈ 12.6 µM) | 16 µg/mL (≈ 25.1 µM) | 8 µg/mL (≈ 12.6 µM) | 8 (≈ 12.6 µM) | 42.61 | 256 µg/mL (≈ 402 µM) |  |  |  |
| CCCCCCCCCCCCCC(=O)N[C@H](C(=O)N[C@@H](CCCNC(=N)N)C(=O)N[C@@H](CCCNC(=N)N)C(N)=O)C(C)C [compound 94, C14-VRR-NH2] (HELM PEPTIDE1{[CCCCCCCCCCCCCC(=O)[*:2]].V.R.R.[am]}$$$$V2.0) | 32 (≈ 50.1 µM) | 128 µg/mL (≈ 200 µM) | 8 (≈ 12.5 µM) | 30.73 (±0.41) µg/mL | 4 µg/mL (≈ 6.26 µM) | 4 µg/mL (≈ 6.26 µM) | 16 µg/mL (≈ 25 µM) | 8 (≈ 12.5 µM) | 44.02 | 128 µg/mL (≈ 200 µM) |  |  |  |
| CCCCCCCCCCCCCC(=O)N[C@@H](Cc1c[nH]c2ccccc12)C(=O)N[C@@H](CCCNC(=N)N)C(=O)N[C@@H](CCCNC(=N)N)C(N)=O [compound 98, C14-WRR-NH2] (HELM PEPTIDE1{[CCCCCCCCCCCCCC(=O)[*:2]].W.R.R.[am]}$$$$V2.0) | 128 (≈ 176 µM) | 64 µg/mL (≈ 88.2 µM) | 8 (≈ 11 µM) | 36.91 (±0.89) µg/mL | 2 µg/mL (≈ 2.75 µM) | 4 µg/mL (≈ 5.51 µM) | 8 µg/mL (≈ 11 µM) | 4 (≈ 5.51 µM) | 47.11 | 32 µg/mL (≈ 44.1 µM) |  |  |  |
| CCCCCCCCCCCCCC(=O)N[C@@H](CCC(N)=O)C(=O)N[C@@H](CCCNC(=N)N)C(=O)N[C@@H](CCCNC(=N)N)C(N)=O [compound 78, C14-QRR-NH2] (HELM PEPTIDE1{[CCCCCCCCCCCCCC(=O)[*:2]].Q.R.R.[am]}$$$$V2.0) | 64 (≈ 95.8 µM) | 256 µg/mL (≈ 383 µM) | 32 (≈ 47.9 µM) | 72.31 (±3.00) µg/mL | 16 µg/mL (≈ 24 µM) | 16 µg/mL (≈ 24 µM) | 16 µg/mL (≈ 24 µM) | 32 (≈ 47.9 µM) | 38.52 | 256 µg/mL (≈ 383 µM) |  |  |  |
| CCCCCCCCCC(=O)N[C@@H](Cc1ccccc1)C(=O)N[C@@H](CCCNC(=N)N)C(=O)N[C@@H](CCCNC(=N)N)C(N)=O [compound 24, C10-FRR-NH2] (HELM PEPTIDE1{[CCCCCCCCCC(=O)[*:2]].F.R.R.[am]}$$$$V2.0) | 64 (≈ 101 µM) | >256 (-) µg/mL | 32 (≈ 50.7 µM) | >256 µg/mL | 16 (>16) µg/mL | 16 (>16) µg/mL | 32 µg/mL (≈ 50.7 µM) | 64 (≈ 101 µM) | 34.68 | >256 (-) µg/mL | 34.68 | 10.38 |  |
| CCCCCCCCCCCCCC(=O)N[C@@H](CO)C(=O)N[C@@H](CCCNC(=N)N)C(=O)N[C@@H](CCCNC(=N)N)C(N)=O [compound 86, C14-SRR-NH2] (HELM PEPTIDE1{[CCCCCCCCCCCCCC(=O)[*:2]].S.R.R.[am]}$$$$V2.0) | 32 (≈ 51 µM) | 128 µg/mL (≈ 204 µM) | 32 (≈ 51 µM) | 41.54 (±1.29) µg/mL | 16 µg/mL (≈ 25.5 µM) | 16 µg/mL (≈ 25.5 µM) | 16 µg/mL (≈ 25.5 µM) | 32 (≈ 51 µM) | 39.72 | 128 µg/mL (≈ 204 µM) |  |  |  |
| CCCCCCCCCCCCCC(=O)N[C@@H](Cc1c[nH]cn1)C(=O)N[C@@H](CCCNC(=N)N)C(=O)N[C@@H](CCCNC(=N)N)C(N)=O [compound 34, C14-HRR-NH2] (HELM PEPTIDE1{[CCCCCCCCCCCCCC(=O)[*:2]].H.R.R.[am]}$$$$V2.0) | 128 (≈ 189 µM) | 256 µg/mL (≈ 378 µM) | 64 (≈ 94.5 µM) | 50.31 (±0.52) µg/mL | 16 µg/mL (≈ 23.6 µM) | 16 µg/mL (≈ 23.6 µM) | 8 µg/mL (≈ 11.8 µM) | 16 (≈ 23.6 µM) | 35.80 | 256 µg/mL (≈ 378 µM) |  |  |  |
| CCCCCCCCCCCC(=O)N[C@@H](CCCNC(=N)N)C(=O)N[C@@H](CCCNC(=N)N)C(=O)N[C@@H](CCCNC(=N)N)C(N)=O [compound 81, C12-RRR-NH2] (HELM PEPTIDE1{[CCCCCCCCCCCC(=O)[*:2]].R.R.R.[am]}$$$$V2.0) | 256 (≈ 383 µM) | >256 (-) µg/mL | 128 (≈ 192 µM) | >256 µg/mL | 32 µg/mL (≈ 47.9 µM) | 16 (>16) µg/mL | 16 (>16) µg/mL | 128 (≈ 192 µM) | 30.00 | >256 (-) µg/mL |  |  |  |
| CCCCCCCCCCCCCC(=O)N[C@@H](CCCNC(=N)N)C(=O)N[C@@H](CCCNC(=N)N)C(=O)N[C@@H](CCCNC(=N)N)C(N)=O [compound 82, C14-RRR-NH2] (HELM PEPTIDE1{[CCCCCCCCCCCCCC(=O)[*:2]].R.R.R.[am]}$$$$V2.0) | 128 (≈ 184 µM) | 128 µg/mL (≈ 184 µM) | 32 (≈ 46 µM) | 211.32 (±9.57) µg/mL | 8 µg/mL (≈ 11.5 µM) | 4 µg/mL (≈ 5.75 µM) | 8 µg/mL (≈ 11.5 µM) | 16 (≈ 23 µM) | 36.76 | 128 µg/mL (≈ 184 µM) |  |  |  |
| CCCCCCCCCCCC(=O)N[C@@H](CC(C)C)C(=O)N[C@@H](CCCNC(=N)N)C(=O)N[C@@H](CCCNC(=N)N)C(N)=O [compound 45, C12-LRR-NH2] (HELM PEPTIDE1{[CCCCCCCCCCCC(=O)[*:2]].L.R.R.[am]}$$$$V2.0) | 64 (≈ 102 µM) | 256 µg/mL (≈ 410 µM) | 16 (≈ 25.6 µM) | 112.81 (±1.39) µg/mL | 16 µg/mL (≈ 25.6 µM) | 8 µg/mL (≈ 12.8 µM) | 16 µg/mL (≈ 25.6 µM) | 16 (≈ 25.6 µM) | 39.82 | 256 µg/mL (≈ 410 µM) |  |  | 39.821 |
| CCCCCCCCCCCCCC(=O)N[C@H](C(=O)N[C@@H](CCCNC(=N)N)C(=O)N[C@@H](CCCNC(=N)N)C(N)=O)[C@@H](C)O [compound 90, C14-TRR-NH2] (HELM PEPTIDE1{[CCCCCCCCCCCCCC(=O)[*:2]].T.R.R.[am]}$$$$V2.0) | 64 (≈ 99.9 µM) | 128 µg/mL (≈ 200 µM) | 32 (≈ 49.9 µM) | 43.43 (±0.90) µg/mL | 8 µg/mL (≈ 12.5 µM) | 8 µg/mL (≈ 12.5 µM) | 8 µg/mL (≈ 12.5 µM) | 8 (≈ 12.5 µM) | 40.80 | 128 µg/mL (≈ 200 µM) |  |  |  |
| CCCCCCCCCCCC(=O)N[C@@H](CCSC)C(=O)N[C@@H](CCCNC(=N)N)C(=O)N[C@@H](CCCNC(=N)N)C(N)=O [compound 49, C12-MRR-NH2] (HELM PEPTIDE1{[CCCCCCCCCCCC(=O)[*:2]].M.R.R.[am]}$$$$V2.0) | 64 (≈ 99.5 µM) | 256 µg/mL (≈ 398 µM) | 32 (≈ 49.8 µM) | 206.50 (±9.14) µg/mL | 16 µg/mL (≈ 24.9 µM) | 8 µg/mL (≈ 12.4 µM) | 16 µg/mL (≈ 24.9 µM) | 32 (≈ 49.8 µM) | 37.95 | 256 µg/mL (≈ 398 µM) |  |  |  |
